Experimental data: US20250066350A1, “AROMATIC HETEROCYCLE-SUBSTITUTED COMPOUNDS, AND PREPARATION METHOD THEREFOR AND USE THEREOF” (Innovstone Therapeutics Limited, priority 2021, published 2025)
Like-named read-outs stand apart in the source and are kept apart here.

Experiments:
LoVo cells = experiment: LoVo cell proliferation experiment (CellTiter-Glo, intracellular ATP); assay type: cell-based; conditions: LoVo human colon cancer cells, 4 days, read-out: IC50 for inhibition of LoVo cell proliferation
Protocol: The following method is used to evaluate the inhibitory effect of the compounds of the present invention on LoVo cell proliferation according to the IC50 values by means of detecting the intracellular ATP content. The experimental method is briefly described as follows:
1. LoVo, human colon cancer tumor cells (Co-bioer, CBP60032)
LoVo cells were cultured in F-12K medium containing 10% FBS and passaged 2 to 3 times a week at a split ratio of 1:3 or 1:5. During passage, the cells were trypsinized and transferred to a centrifuge tube. The tube was centrifuged at 1000 rpm for 5 minutes, the supernatant medium was discarded, and fresh medium was added to resuspend the cells. 100 μL of cell suspension at a density of 1.5×10^4 cells/mL was added to a 96-well cell culture plate, and 100 μL of complete medium only was added to the periphery wells of the 96-well plate. The culture plate was incubated in an incubator for 24 hours (37° C., 5% CO2).
The sample to be tested was diluted to 1 mM with DMSO, diluted 3-fold serially to 8 concentrations, and prepared to 200× dilution with cell culture medium. Blank and control wells were set. 5 μL of the solution containing the compound to be tested prepared in gradient concentrations was added to 95 μL of fresh medium. 100 μL of 1× culture medium containing the compound was added to the culture plate. The culture plate was incubated in an incubator for 4 days (37° C., 5% CO2). 50 μL of CellTiter-Glo reagent was added to each well of the 96-well cell culture plate, and the plate was placed at room temperature in the dark for 5-10 min. The chemiluminescent signal values were read in PHERAstar, and data were processed using GraphPad software.
The inhibitory effect of the compounds of the present invention on LoVo cell proliferation can be determined by the test described above, and the measured IC50 values are shown in Table 2.

ATR enzyme = ATR enzyme (Homo sapiens (Human), UniProt Q13535); experiment: Inhibitory effect on ATR enzyme (HTRF, phospho-P53); assay type: biochemical; conditions: 90 minutes incubation, 150 nM ATP final; read-out: IC50 for ATR enzyme inhibition
Protocol: Test Example 1. Inhibitory Effect of Compounds of the Present Invention on ATR Enzyme
The following method is used to determine the inhibitory effect of the compounds of the present invention on the ATR enzyme. The experimental method is briefly described as follows:
1. ATR enzyme (Eurofins Pharma Discovery Services, 14-953M)
2. GST-tagged P53 protein (Eurofins Pharma Discovery Services, 14-952M)
15 nM ATR enzyme, 80 nM P53 protein, 300 nM ATP (the final concentrations were 40 nM and 150 nM, respectively), and small molecule compounds of various concentrations (the final concentrations (nM) of the ten points were 2985.0, 895.5, 298.5, 110.56, 33.17, 11.06, 4.09, 1.23, 0.41 and 0.15, respectively, and the final dimethyl sulfoxide concentration was 0.498%) were mixed and incubated at room temperature for 90 minutes. 10 μL of 2× cocktail buffer was added to the mixture of ATR, compound and substrate in the assay plate (anti-phospho-p53-Eu and anti-GST-d2 were diluted in the assay buffer). The resulting mixture was centrifuged at 1000 rpm for 30 seconds, and incubated overnight at 4° C. in the dark (a total of 20 μl in each well). The FRET signal (endpoint) was measured in the Envision instrument (HTRF 665/612 ratio was calculated at 665 nm emission and 612 nm emission). Data were processed using GraphPad software.
The inhibitory activity of the compounds of the present invention on the ATR enzyme can be determined by the test described above, and the measured IC50 values are shown in Table 1.

SNU-601 cells = experiment: SNU-601 cell proliferation experiment (CellTiter-Glo, intracellular ATP); assay type: cell-based; conditions: SNU-601 human gastric cancer cells, 5 days, read-out: IC50 for inhibition of SNU-601 cell proliferation
Protocol: The following method is used to evaluate the inhibitory effect of the compounds of the present disclosure on SNU-601 cell proliferation according to the IC50 values by means of detecting the intracellular ATP content. The experimental method is briefly described as follows:
1. SNU-601, human gastric cancer tumor cells (Co-bioer, CBP60507)
SNU-601 cells were cultured in RPMI 1640 medium containing 10% FBS and passaged 2 to 3 times a week at a split ratio of 1:5 or 1:10. During passage, the cells were trypsinized and transferred to a centrifuge tube. The tube was centrifuged at 1000 rpm for 5 minutes, the supernatant medium was discarded, and fresh medium was added to resuspend the cells. 195 μL of cell suspension at a density of 5.128×10^3 cells/mL was added to a 96-well cell culture plate, and 200 μL of complete medium only was added to the periphery wells of the 96-well plate. The culture plate was incubated in an incubator for 24 hours (37° C., 5% CO2).
The sample to be tested was diluted to 2 mM with DMSO, diluted 3-fold serially to 10 concentrations. Blank and control wells were set. 10 μL of the solution containing the compound to be tested prepared in gradient concentrations was added to 50 μL of fresh medium. 5 μL of the above culture medium solution containing the compound was added to the culture plate. The culture plate was incubated in an incubator for 5 days (37° C., 5% CO2). 50 μL of CellTiter-Glo reagent was added to each well of the 96-well cell culture plate after discarding 100 μL/well, and the plate was shaken at room temperature in the dark for 10 min. The chemiluminescent signal values were read in PHERAstar, and data were processed using GraphPad software.
The inhibitory effect of the compounds of the present invention on SNU-601 cell proliferation can be determined by the test described above, and the measured IC50 values are shown in Table 3.

Chain of ATR enzyme (Q13535 whole entry): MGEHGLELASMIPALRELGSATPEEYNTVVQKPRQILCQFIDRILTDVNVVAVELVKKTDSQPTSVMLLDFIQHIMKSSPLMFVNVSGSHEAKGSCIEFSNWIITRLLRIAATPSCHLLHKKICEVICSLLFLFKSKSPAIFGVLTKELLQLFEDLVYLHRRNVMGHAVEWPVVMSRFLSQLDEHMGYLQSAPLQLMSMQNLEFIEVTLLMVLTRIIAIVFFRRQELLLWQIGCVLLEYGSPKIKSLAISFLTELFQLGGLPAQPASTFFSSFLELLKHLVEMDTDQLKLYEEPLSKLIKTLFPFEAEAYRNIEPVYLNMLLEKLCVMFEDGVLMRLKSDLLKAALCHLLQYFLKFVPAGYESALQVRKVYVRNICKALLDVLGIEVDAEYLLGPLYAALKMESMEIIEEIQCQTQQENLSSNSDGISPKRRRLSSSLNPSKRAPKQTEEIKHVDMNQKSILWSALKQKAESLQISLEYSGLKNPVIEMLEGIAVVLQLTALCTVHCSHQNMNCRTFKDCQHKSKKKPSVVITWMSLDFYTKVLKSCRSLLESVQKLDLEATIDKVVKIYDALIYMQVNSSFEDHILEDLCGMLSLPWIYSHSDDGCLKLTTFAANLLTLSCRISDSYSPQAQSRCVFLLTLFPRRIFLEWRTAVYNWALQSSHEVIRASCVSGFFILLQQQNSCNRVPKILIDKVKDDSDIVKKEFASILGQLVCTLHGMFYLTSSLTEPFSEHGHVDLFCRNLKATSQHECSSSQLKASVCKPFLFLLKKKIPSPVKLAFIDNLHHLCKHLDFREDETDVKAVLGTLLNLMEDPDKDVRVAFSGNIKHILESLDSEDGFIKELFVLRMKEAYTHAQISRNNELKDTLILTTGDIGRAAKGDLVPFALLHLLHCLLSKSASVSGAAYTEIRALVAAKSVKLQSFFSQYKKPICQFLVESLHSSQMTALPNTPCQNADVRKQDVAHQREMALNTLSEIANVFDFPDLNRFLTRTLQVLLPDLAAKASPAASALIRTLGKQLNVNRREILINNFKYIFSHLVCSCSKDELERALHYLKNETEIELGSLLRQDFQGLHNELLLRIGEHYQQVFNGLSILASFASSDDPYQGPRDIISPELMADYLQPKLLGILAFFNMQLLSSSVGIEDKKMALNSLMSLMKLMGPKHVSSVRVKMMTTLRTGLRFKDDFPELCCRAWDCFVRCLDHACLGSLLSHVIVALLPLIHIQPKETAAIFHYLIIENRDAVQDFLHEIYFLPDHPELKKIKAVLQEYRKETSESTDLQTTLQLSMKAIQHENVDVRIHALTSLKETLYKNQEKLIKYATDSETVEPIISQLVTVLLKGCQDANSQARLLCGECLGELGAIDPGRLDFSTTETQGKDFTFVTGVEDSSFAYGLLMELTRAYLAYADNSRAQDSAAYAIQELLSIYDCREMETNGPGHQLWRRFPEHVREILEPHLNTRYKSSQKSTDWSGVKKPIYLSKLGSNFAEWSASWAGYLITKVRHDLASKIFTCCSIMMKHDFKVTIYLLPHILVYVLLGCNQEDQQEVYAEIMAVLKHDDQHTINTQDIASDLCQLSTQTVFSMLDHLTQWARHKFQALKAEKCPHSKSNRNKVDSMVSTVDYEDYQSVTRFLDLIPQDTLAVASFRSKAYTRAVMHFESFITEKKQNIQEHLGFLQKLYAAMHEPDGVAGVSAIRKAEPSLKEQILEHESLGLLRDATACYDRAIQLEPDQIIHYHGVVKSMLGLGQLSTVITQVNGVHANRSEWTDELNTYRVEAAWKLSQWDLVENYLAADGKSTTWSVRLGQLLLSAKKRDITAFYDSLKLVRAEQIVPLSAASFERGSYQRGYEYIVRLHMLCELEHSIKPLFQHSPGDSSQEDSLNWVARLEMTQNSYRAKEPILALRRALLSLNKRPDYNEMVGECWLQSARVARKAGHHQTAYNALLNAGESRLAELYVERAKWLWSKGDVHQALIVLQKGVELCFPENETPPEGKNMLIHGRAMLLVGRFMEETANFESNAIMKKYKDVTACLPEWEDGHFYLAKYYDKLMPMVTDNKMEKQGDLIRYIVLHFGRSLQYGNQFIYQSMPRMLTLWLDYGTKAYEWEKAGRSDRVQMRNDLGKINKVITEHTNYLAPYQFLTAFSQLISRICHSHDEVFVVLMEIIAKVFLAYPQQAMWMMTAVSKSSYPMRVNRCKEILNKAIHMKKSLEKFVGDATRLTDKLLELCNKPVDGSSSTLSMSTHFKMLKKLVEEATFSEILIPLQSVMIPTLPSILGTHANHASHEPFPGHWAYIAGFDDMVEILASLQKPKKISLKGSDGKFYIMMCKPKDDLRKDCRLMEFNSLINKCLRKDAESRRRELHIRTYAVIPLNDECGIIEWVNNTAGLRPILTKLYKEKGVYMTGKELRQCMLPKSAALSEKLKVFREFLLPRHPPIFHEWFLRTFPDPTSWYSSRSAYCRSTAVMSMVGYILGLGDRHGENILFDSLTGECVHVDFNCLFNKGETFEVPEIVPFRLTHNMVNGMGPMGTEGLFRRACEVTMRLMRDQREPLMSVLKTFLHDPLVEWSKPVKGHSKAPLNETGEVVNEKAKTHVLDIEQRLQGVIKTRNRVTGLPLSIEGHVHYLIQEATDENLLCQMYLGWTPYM
Chain of ATR enzyme (Q8WXE1 whole entry partner): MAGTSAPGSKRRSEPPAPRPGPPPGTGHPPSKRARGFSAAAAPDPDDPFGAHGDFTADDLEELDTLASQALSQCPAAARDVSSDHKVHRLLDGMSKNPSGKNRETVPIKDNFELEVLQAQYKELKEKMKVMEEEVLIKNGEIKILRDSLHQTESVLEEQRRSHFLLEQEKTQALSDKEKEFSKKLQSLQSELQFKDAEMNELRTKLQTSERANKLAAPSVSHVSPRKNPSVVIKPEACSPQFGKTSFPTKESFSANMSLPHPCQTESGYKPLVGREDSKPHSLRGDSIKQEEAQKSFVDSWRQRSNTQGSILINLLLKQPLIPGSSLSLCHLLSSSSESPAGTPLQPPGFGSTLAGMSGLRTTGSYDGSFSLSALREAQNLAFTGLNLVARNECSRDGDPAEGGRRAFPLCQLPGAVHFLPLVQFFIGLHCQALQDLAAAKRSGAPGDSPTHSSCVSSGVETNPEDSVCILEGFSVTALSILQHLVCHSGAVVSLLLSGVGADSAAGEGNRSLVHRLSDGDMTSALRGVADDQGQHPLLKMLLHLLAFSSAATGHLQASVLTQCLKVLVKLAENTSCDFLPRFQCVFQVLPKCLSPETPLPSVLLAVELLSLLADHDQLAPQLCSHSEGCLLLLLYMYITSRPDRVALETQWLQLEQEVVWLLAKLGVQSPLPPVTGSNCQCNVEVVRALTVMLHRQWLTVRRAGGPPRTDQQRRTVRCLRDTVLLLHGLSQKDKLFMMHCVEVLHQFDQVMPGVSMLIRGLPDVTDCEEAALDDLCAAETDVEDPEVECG

COCC#Cc1cc(N2CCOC[C@H]2C)nc2c1cnn2-c1cc[nH]n1 [Compound 5, (R)-4-(4-(3-methoxypropyl-1-alkynyl)-1-(1H-pyrazol-3-yl)-1H-pyrazole[3,4-b]pyridin-6-yl)-3-methylmorpholine]
IC50 (LoVo cells; 96 h): ≤ 0.02 µM

C[C@@H]1COCCN1c1cc(-c2ccc(NC(=O)N3CCCC3)c(C#N)c2)c2cnn(-c3cc[nH]n3)c2n1 [Example 228]
IC50 (ATR enzyme): ≤ 0.01 µM
IC50 (LoVo cells; 96 h): 0.02 to 0.1 µM
IC50 (SNU-601 cells; 120 h): ≤ 0.01 µM

C[C@@H]1COCCN1c1cc(-c2ccc(N3CCCCCC3=O)cc2F)c2cnn(-c3cc[nH]n3)c2n1 [Example 197]
IC50 (LoVo cells; 96 h): 0.02 to 0.1 µM
IC50 (SNU-601 cells; 120 h): 0.01 to 0.1 µM

C[C@@H]1COCCN1c1cc(-c2ccc(N3CCCCC3=O)cc2)c2cnn(-c3cc[nH]n3)c2n1 [Compound 7, (R)-1-(4-(6-(3-methylmorpholinyl)-1-(1H-pyrazolyl-3-yl)-1H-pyrazolyl[3,4-b]pyridin-4-yl)phenyl)piperidin-2-one]
IC50 (LoVo cells; 96 h): 0.02 to 0.1 µM
IC50 (SNU-601 cells; 120 h): 0.01 to 0.1 µM

C[C@@H]1COCCN1c1cc(-c2ccc(NC(=O)c3cccc(S(C)(=O)=O)c3)cc2)c2cnn(-c3cc[nH]n3)c2n1 [Example 145]
IC50 (LoVo cells; 96 h): 0.02 to 0.1 µM
IC50 (SNU-601 cells; 120 h): 0.01 to 0.1 µM

C[C@@H]1COCCN1c1cc(C2(O)CCC(C#N)CC2)c2cnn(-c3cc[nH]n3)c2n1 (stereo partly drawn) [RP103, reference compound]
IC50 (ATR enzyme): ≤ 0.01 µM
IC50 (LoVo cells; 96 h): 0.02 to 0.1 µM
IC50 (SNU-601 cells; 120 h): 0.01 to 0.1 µM

C[C@@H]1COCCN1c1cc([C@]2(O)C[C@H]3CC[C@@H](C2)O3)c2cnn(-c3ccn[nH]3)c2n1 [RP3500, reference compound]
IC50 (ATR enzyme): ≤ 0.01 µM
IC50 (LoVo cells; 96 h): 0.02 to 0.1 µM
IC50 (SNU-601 cells; 120 h): 0.01 to 0.1 µM

C[C@@H]1COCCN1c1cc(-c2ccc(NC(=O)c3ccncc3)cc2)c2cnn(-c3cc[nH]n3)c2n1 [Example 148]
IC50 (ATR enzyme): ≤ 0.01 µM
IC50 (LoVo cells): 0.02 to 0.1 µM
IC50 (SNU-601 cells): 0.01 to 0.1 µM

C[C@@H]1COCCN1c1cc(-c2ccc(N3CCCCS3(=O)=O)cc2F)c2cnn(-c3cc[nH]n3)c2n1 [Example 239]
IC50 (ATR enzyme): ≤ 0.01 µM
IC50 (LoVo cells; 96 h): 0.02 to 0.1 µM
IC50 (SNU-601 cells; 120 h): 0.01 to 0.1 µM

C[C@@H]1COCCN1c1cc(-c2ccc(NC(=O)c3cocn3)cc2)c2cnn(-c3cc[nH]n3)c2n1 [Example 164]
IC50 (ATR enzyme): ≤ 0.01 µM
IC50 (LoVo cells): 0.02 to 0.1 µM
IC50 (SNU-601 cells): 0.01 to 0.1 µM

C[C@@H]1COCCN1c1cc(-c2c(F)cc(N3CC4CCC(O4)C3=O)cc2F)c2cnn(-c3cc[nH]n3)c2n1 (stereo partly drawn) [Example 261]
IC50 (ATR enzyme): ≤ 0.01 µM
IC50 (LoVo cells; 96 h): 0.02 to 0.1 µM
IC50 (SNU-601 cells; 120 h): 0.01 to 0.1 µM

CC(=O)Nc1ccc(-c2cc(N3CCOC[C@H]3C)nc3c2cnn3-c2cc[nH]n2)cc1 [Example 30, (R)-N-(4-(6-(3-methylmorpholinyl)-1-(1H-pyrazolyl-3-yl)-1H-pyrazolyl[3,4-b]pyridin-4-yl)phenyl)acetamide]
IC50 (ATR enzyme): ≤ 0.01 µM
IC50 (SNU-601 cells; 120 h): 0.01 to 0.1 µM

C[C@@H]1COCCN1c1cc(-c2ccc(N3CC4CCC(O4)C3=O)nc2)c2cnn(-c3cc[nH]n3)c2n1 (stereo partly drawn) [Example 255]
IC50 (ATR enzyme): ≤ 0.01 µM
IC50 (SNU-601 cells; 120 h): 0.01 to 0.1 µM

C[C@@H]1COCCN1c1cc(-c2ccc(N3CC=CCC3=O)cc2F)c2cnn(-c3cc[nH]n3)c2n1 [Example 243]
IC50 (ATR enzyme): ≤ 0.01 µM
IC50 (SNU-601 cells; 120 h): 0.01 to 0.1 µM

C[C@@H]1COCCN1c1cc(C2(O)CCC3(CC2)CO3)c2cnn(-c3cc[nH]n3)c2n1 (stereo partly drawn) [Compound 2, (R)-6-(6-(3-methylmorpholinyl)-1-(1H-pyrazol-3-yl)-1H-pyrazole[3,4-b]pyridin-4-yl)-1-oxaspiro[2.5]octan-6-ol]
IC50 (LoVo cells; 96 h): 0.02 to 0.1 µM

C[C@@H]1COCCN1c1cc(-c2cccc(N3CCCC3=O)c2)c2cnn(-c3cc[nH]n3)c2n1 [Example 58]
IC50 (ATR enzyme): ≤ 0.01 µM
IC50 (SNU-601 cells): 0.01 to 0.1 µM

C[C@@H]1COCCN1c1cc(-c2cc(NC(=O)C3CC3)on2)c2cnn(-c3cc[nH]n3)c2n1 [Example 260]
IC50 (ATR enzyme): ≤ 0.01 µM
IC50 (SNU-601 cells; 120 h): 0.01 to 0.1 µM

C[C@@H]1COCCN1c1cc(-c2ccc(N3CCCC3=O)cc2F)c2cnn(-c3cc[nH]n3)c2n1 [Example 59, (R)-1-(3-fluoro-4-(6-(3-methylmorpholino)-1-(1H-pyrazol-3-yl)-1H-pyrazolo[3,4-b]pyridin-4-yl)phenyl)pyrrolidin-2-one]
IC50 (ATR enzyme): ≤ 0.01 µM
IC50 (SNU-601 cells; 120 h): ≤ 0.01 µM

CC(=O)N1CCCC(C(=O)Nc2ccc(-c3cc(N4CCOC[C@H]4C)nc4c3cnn4-c3cc[nH]n3)cc2)C1 (stereo partly drawn) [Example 162]
IC50 (ATR enzyme): ≤ 0.01 µM
IC50 (SNU-601 cells): 0.01 to 0.1 µM

C[C@@H]1COCCN1c1cc(-c2ccc(NC(=O)c3cccnc3)cc2)c2cnn(-c3cc[nH]n3)c2n1 [Example 214]
IC50 (ATR enzyme): ≤ 0.01 µM
IC50 (SNU-601 cells): 0.01 to 0.1 µM

C[C@@H]1COCCN1c1cc(-c2ccc(N3CCCCC3=O)cc2C#N)c2cnn(-c3cc[nH]n3)c2n1 [Example 224]
IC50 (ATR enzyme): ≤ 0.01 µM
IC50 (SNU-601 cells; 120 h): 0.01 to 0.1 µM

C[C@@H]1COCCN1c1cc(-c2ccc(N3C(=O)C4C=CC3C4)cc2F)c2cnn(-c3cc[nH]n3)c2n1 (stereo partly drawn) [Example 262]
IC50 (ATR enzyme): ≤ 0.01 µM
IC50 (SNU-601 cells; 120 h): 0.01 to 0.1 µM

C[C@@H]1COCCN1c1cc(-c2ccc(N3CC4CCC(O4)C3=O)c(F)c2)c2cnn(-c3cc[nH]n3)c2n1 (stereo partly drawn) [Example 200, 3-(2-fluoro-4-(6-((R)-3-methylmorpholino)-1-(1H-pyrazol-3-yl)-1H-pyrazolo[3,4-b]pyridin-4-yl)phenyl)-8-oxa-3-azabicyclo[3.2.1]octan-2-one]
IC50 (ATR enzyme): ≤ 0.01 µM
IC50 (SNU-601 cells; 120 h): 0.01 to 0.1 µM

CC1CCCN(c2cc(F)c(-c3cc(N4CCOC[C@H]4C)nc4c3cnn4-c3cc[nH]n3)c(F)c2)C1=O (stereo partly drawn) [Example 241]
IC50 (ATR enzyme): ≤ 0.01 µM
IC50 (SNU-601 cells; 120 h): 0.01 to 0.1 µM

C[C@@H]1COCCN1c1cc(-c2ccc(N3C(=O)C4CCC3C4)cc2F)c2cnn(-c3cc[nH]n3)c2n1 (stereo partly drawn) [Example 263]
IC50 (ATR enzyme): ≤ 0.01 µM
IC50 (SNU-601 cells; 120 h): 0.01 to 0.1 µM

C[C@@H]1COCCN1c1cc(-c2ccc(NC(=O)C3CC3)cc2F)c2cnn(-c3cc[nH]n3)c2n1 [Example 234]
IC50 (ATR enzyme): ≤ 0.01 µM
IC50 (SNU-601 cells; 120 h): 0.01 to 0.1 µM

C[C@@H]1COCCN1c1cc(C2CCCOC2)c2cnn(-c3cc[nH]n3)c2n1 (stereo partly drawn) [Compound 13, (3R)-4-(1-(1H-pyrazol-3-yl)-4-(tetrahydro-2H-pyran-3-yl)-1H-pyrazole[3,4-b]pyridin-6-yl)-3-methylmorpholine]
IC50 (LoVo cells; 96 h): 0.02 to 0.1 µM

CCC(=O)Nc1ccc(-c2cc(N3CCOC[C@H]3C)nc3c2cnn3-c2cc[nH]n2)cc1 [Example 150]
IC50 (ATR enzyme): ≤ 0.01 µM
IC50 (SNU-601 cells): 0.01 to 0.1 µM
